Activity data for 31 compounds are collected here from ChEMBL document CHEMBL3045901, “Aryldiones incorporating a [1,4,5]oxadiazepane ring. Part 2: chemistry and biology of the cereal herbicide pinoxaden” (Pest Manag Sci, 2011).

Holding throughout (format): functional
Test [1] has as its system Lolium perenne. Description: Herbicidal activity against Lolium perenne (perennial ryegrass) assessed as weed control at 30 g/ha under greenhouse measured after 21 days by post-emergence test.
The test system of test [2] is Triticum aestivum. Description: Herbicidal activity against Triticum aestivum (wheat) assessed as weed control at 30 g/ha under greenhouse measured after 21 days by post-emergence test.
For test [3], the system named is Avena fatua. Description: Herbicidal activity against Avena fatua assessed as weed control at 30 g/ha under greenhouse measured after 21 days by post-emergence test.
In test [4] the test system is Hordeum vulgare. Description: Herbicidal activity against Hordeum vulgare (barley) assessed as weed control at 30 g/ha under greenhouse measured after 21 days by post-emergence test.
Test [5] concerns Setaria faberi. Description: Herbicidal activity against Setaria faberi (Giant Foxtail) assessed as weed control at 30 g/ha under greenhouse measured after 21 days by post-emergence test.
In test [6] the test system is Alopecurus myosuroides. Description: Herbicidal activity against Alopecurus myosuroides assessed as weed control at 30 g/ha under greenhouse measured after 21 days by post-emergence test.

Take `Cc1cc(C)c(C2C(=O)N3CCOCCN3C2=O)c(C)c1`: the Activity in test [1] is 80%; in test [2], 0%; in test [3] it was 60%; in test [4], 0%; in test [5], 50%; in test [6] it was 10%.

With `COc1cc(C)cc(Br)c1C1C(=O)N2CCOCCN2C1=O`, the Activity in test [1] is listed as 100%; in test [2], 10%; in test [3], 60%; in test [4], 20%; in test [5], 60%; in test [6] it was 20%.

Take `CCc1cc(C)cc(CC)c1C1C(=O)N2CCC(O)CCN2C1=O`: the Activity was found to be 90% in test [1]; 80% in test [2]; 100% in test [3]; 40% in test [4]; 90% in test [5]; 100% in test [6].

With `CCc1cc(C)cc(CC)c1C1C(=O)N2CCC(C)(O)CCN2C1=O`, the Activity in test [1] is recorded as 100%; in test [2], 80%; in test [3], 80%; in test [4] it was 90%; in test [5], 90%; in test [6], 100%.

Consider `CCc1cc(C)cc(CC)c1C1C(=O)N2CCCOCN2C1=O` (stereo unspecified), for which the Activity in test [1] came out at 40%; in test [2], 0%; in test [3], 40%; in test [4], 0%; in test [5], 10%; in test [6], 0%.

On to `CCc1cc(C)cc(CC)c1C1C(=O)N2C(C)COCC(C)N2C1=O` (stereo unspecified), for which the Activity in test [1] worked out at 40%; in test [2], 0%; in test [3], 50%; in test [4], 0%; in test [5] it was 80%; in test [6] it was 60%.

On to `CCc1cc(C)cc(CC)c1C1C(=O)N2CCOC(C)CN2C1=O` (stereo unspecified), for which the Activity in test [1] turned out to be 90%; in test [2], 0%; in test [3], 40%; in test [4], 0%; in test [5], 90%; in test [6], 60%.

`CCc1cc(C)cc(CC)c1C1C(=O)N2CCOC(CC)CN2C1=O` (stereo unspecified): the Activity in test [1] was 80%; in test [2], 0%; in test [3], 40%; in test [4], 0%; in test [5], 20%; in test [6], 20%.

As to `CCc1cc(C)cc(CC)c1C1C(=O)N2CC(C)OC(C)CN2C1=O` (stereo unspecified), the Activity in test [1] is 80%; in test [2], 0%; in test [3], 90%; in test [4], 0%; in test [5], 90%; in test [6] it was 50%.

For the compound `CCc1cc(C)cc(CC)c1C1C(=O)N2C[C@H]3CC[C@@H](CN2C1=O)O3` (stereo partly specified), the Activity is given as 80% in test [1]; 0% in test [2]; 80% in test [3]; 0% in test [4]; 80% in test [5]; 40% in test [6].

Consider `CCc1cc(C)cc(CC)c1C1C(=O)N2C[C@H]3COC[C@H]3CN2C1=O` (stereo partly specified), for which the Activity came out at 90% in test [1]; 40% in test [2]; 100% in test [3]; 0% in test [4]; 100% in test [5]; 100% in test [6].

For `Cc1cc(Br)c(C2C(=O)N3CCOCCN3C2=O)c(Br)c1`, the Activity in test [1] is on record as 10%; in test [2], 0%; in test [3] it was 40%; in test [4], 0%; in test [5] it was 10%; in test [6] it was 0%.

In the case of `Cc1cc(C)c(C2C(=O)N3CCOCCN3C2=O)c(Br)c1`, the Activity amounted to 90% in test [1]; 0% in test [2]; 40% in test [3]; 0% in test [4]; 40% in test [5]; 0% in test [6].

With `CCc1cc(C)cc(C)c1C1C(=O)N2CCOCCN2C1=O`, the Activity in test [1] is on record as 60%; in test [2] it was 20%; in test [3], 80%; in test [4], 40%; in test [5], 60%; in test [6] it was 60%.

On to `CCCc1cc(C)cc(C)c1C1C(=O)N2CCOCCN2C1=O`, for which the Activity in test [1] came out at 60%; in test [2], 0%; in test [3], 80%; in test [4], 0%; in test [5], 40%; in test [6], 20%.

For the compound `Cc1cc(C)c(C2C(=O)N3CCOCCN3C2=O)c(C(C)C)c1`, the Activity in test [1] was found to be 50%; in test [2] it was 0%; in test [3] it was 50%; in test [4] it was 0%; in test [5] it was 20%; in test [6], 0%.

On to `Cc1cc(C)c(C2C(=O)N3CCOCCN3C2=O)c(C2CC2)c1`, for which the Activity in test [1] is on record as 50%; in test [2] it was 0%; in test [3] it was 90%; in test [4], 0%; in test [5], 60%; in test [6], 0%.

In the case of `C#Cc1cc(C)cc(C)c1C1C(=O)N2CCOCCN2C1=O`, the Activity in test [1] is listed as 90%; in test [2], 50%; in test [3] it was 100%; in test [4], 40%; in test [5], 100%; in test [6] it was 80%.

With `CC#Cc1cc(C)cc(C)c1C1C(=O)N2CCOCCN2C1=O`, the Activity in test [1] turned out to be 60%; in test [2], 10%; in test [3], 40%; in test [4], 10%; in test [5] it was 40%; in test [6] it was 0%.

With `CCc1cc(C)c(C2C(=O)N3CCOCCN3C2=O)c(CC)c1`, the Activity in test [1] is reported as 60%; in test [2] it was 0%; in test [3] it was 50%; in test [4], 0%; in test [5], 60%; in test [6], 0%.

Consider `C#Cc1cc(C)c(C2C(=O)N3CCOCCN3C2=O)c(CC)c1`, for which the Activity in test [1] stood at 10%; in test [2], 0%; in test [3], 20%; in test [4], 10%; in test [5], 20%; in test [6] it was 20%.

Consider `CCc1cccc(CC)c1C1C(=O)N2CCOCCN2C1=O`, for which the Activity was 0% in test [1]; 0% in test [2]; 0% in test [3]; 0% in test [4]; 90% in test [5]; 0% in test [6].

As to `CCc1cc(CC)c(C2C(=O)N3CCOCCN3C2=O)c(CC)c1`, the Activity worked out at 60% in test [1]; 0% in test [2]; 60% in test [3]; 0% in test [4]; 40% in test [5]; 40% in test [6].

For `CCc1cc(I)cc(CC)c1C1C(=O)N2CCOCCN2C1=O`, the Activity in test [1], in test [2], in test [3], in test [4], in test [5] and in test [6] was 0% throughout.

Consider `CCc1cc(-c2ccccc2)cc(CC)c1C1C(=O)N2CCOCCN2C1=O`, for which the Activity is recorded as 80% in test [1]; 80% in test [2]; 90% in test [3]; 80% in test [4]; 80% in test [5]; 90% in test [6].

Take `CCCc1cc(C)cc(CCC)c1C1C(=O)N2CCOCCN2C1=O`: the Activity was 0% in test [1]; 0% in test [2]; 80% in test [3]; 0% in test [4]; 90% in test [5]; 50% in test [6].

Regarding `C#Cc1cc(C)cc(CC)c1C1C(=O)N2CCOCCN2C1=O`, the Activity stood at 100% in test [1]; 50% in test [2]; 100% in test [3]; 50% in test [4]; 100% in test [5]; 100% in test [6].

On to `C#Cc1cc(C)cc(C#C)c1C1C(=O)N2CCOCCN2C1=O`, for which the Activity in test [1] was 80%; in test [2] it was 20%; in test [3], 90%; in test [4] it was 20%; in test [5], 90%; in test [6] it was 80%.

Consider `CCc1cc(C)cc(OC)c1C1C(=O)N2CCOCCN2C1=O`, for which the Activity in test [1] is 80%; in test [2], 50%; in test [3] it was 90%; in test [4], 50%; in test [5], 100%; in test [6], 90%.

For the compound `C#Cc1cc(C)cc(OC)c1C1C(=O)N2CCOCCN2C1=O`, the Activity in test [1] was determined as 100%; in test [2], 0%; in test [3], 0%; in test [4], 0%; in test [5], 90%; in test [6] it was 20%.

As for `CCc1cc(-c2ccccc2)cc(OC)c1C1C(=O)N2CCOCCN2C1=O`, the Activity turned out to be 90% in test [1]; 90% in test [2]; 100% in test [3]; 90% in test [4]; 90% in test [5]; 80% in test [6].
